Here are results for 87 compounds from a melting point compilation (Tetko et al.; mined from patent text by program, amines drawn as free bases though some values may be those of a salt).

A word on the melting point: it is the temperature of the solid-liquid transition. `CN1C(=O)C(NC(=O)Nc2ccccc2[N+](=O)[O-])N=C(c2ccccc2)c2ccccc21` (configuration not stated) gave a melting point of 260 to 261 °C.
To `Cc1c(-c2ccccc2)sc2ccc(Cl)cc12` belongs 108 to 110 °C; to `CON=C(C)CCc1nc2c(N)nc3ccccc3c2n1CC(C)(C)O`, 182 to 184 °C.
As for `O=[N+]([O-])c1ccc(S(=O)(=O)NCc2ccccc2)c([N+](=O)[O-])c1`, the figure is 150 to 151 °C; as for `Cc1ccc(C)n1-c1ccc(C(C)NO)cc1` (configuration not stated), 109 to 111 °C; as for `CC1=NC2CN=C(c3ccccc3)c3cc(Cl)ccc3C2C(=O)N1` (configuration not stated), 155 to 160 °C.
`CCSc1cccc(C)c1S(=O)(=O)NC(C)(C)C` gave a melting point of 94 °C.
As for `N#Cc1ccc(-c2cccc(OC3SCC(O)C(O)C3O)c2)cn1` (configuration not stated), the figure is 179 °C; as for `CC(C)C(=O)NCCCC1COCc2nc3c(N)nc4ccccc4c3n21` (configuration not stated), 207 to 208 °C.
To `CN(C(=O)OC(C)(C)C)c1ccc2onc(OCC(CO)NC(=O)OC(C)(C)C)c2c1` (configuration not stated) belongs 109 to 112 °C.
As for `C=Cc1cc(C)cc(C)c1C1=C(O)C2(CCN(OC)CC2)N(C)C1=O`, the figure is 158 to 161 °C.
Turning to `Cc1cccc2c1C=Cc1ccccc1C2(C)NO` (configuration not stated), the melting point is 127 to 130 °C.
As for `CC(C)c1nc(-c2ncn3c2COC(=O)c2ccccc2-3)no1`, the figure is 143 to 144 °C; as for `CCOc1cc(C=O)cc2c1OC1(C=C2Br)CCN(C(=O)OC(C)(C)C)CC1`, 148 to 150 °C.
As for `COc1cc2c(=O)c(OS(C)(=O)=O)cn(C)c2cc1OC`, the figure is 216 to 217 °C; as for `CC(C)Oc1ccc(CCCCOc2cc(CCC(=O)O)n(-c3ccccc3)n2)c(Oc2ncc(C(F)(F)F)cc2Cl)c1`, 75 to 77 °C.
The compound `COCn1c(-c2ccncc2)c(C)c(CO)c1-c1ccncc1` yielded a melting point of 181 to 183 °C.
To `CCOc1ccc2nc3ccc(C(=O)O)cn3c(=O)c2c1` belongs 260 to 265 °C; to `CS(=O)(=O)c1nc(C(N)=O)n[nH]1`, 172 to 180 °C; to `CC1=C(CO)C(=O)OC(C(C)C2CCC3C4CC5OC56C(O)C=CC(=O)C6(C)C4CCC23C)C1` (configuration not stated), 227 to 228 °C.
As for `CC(C)Cn1c(=O)n(C)c(=O)c2c(-c3ccccc3F)n(Cc3csc4ccccc34)nc21`, the figure is 55 to 57 °C.
As for `CC(C)(C)OC(=O)N1CCC(CCCCN2C(=O)c3ccccc3C2=O)CC1`, the figure is 100 to 102 °C; as for `Oc1cc(CN/C=C2\CN=Cc3ccc(I)cc32)ccc1OC(F)F`, 254 to 255 °C.
Compound `Cn1cc(C(=O)NCc2ccc(Cl)cc2)c(=O)c2cc(CN3CCOC[C@@H]3[C@H](O)c3ccccc3)sc21` gave a melting point of 129 to 134 °C.
As for `CC(C)(C)c1cc(C(O)C#Cc2ccc(C(=O)O)cc2)ccc1N1CCCCC1` (configuration not stated), the figure is 112 °C.
To `NC(=O)c1sc2ncnc(-c3cccc(NC(=O)Nc4cccc(C(F)(F)F)c4)c3)c2c1N` belongs 201 to 203 °C; to `Fc1ccc2occ(CCN3CCN(c4cccc5cccnc45)CC3)c2c1`, 54 °C.
As for `O=C1c2cc(Br)cc(Br)c2CCC1n1ccnc1` (configuration not stated), the figure is 180 to 184 °C; as for `CCN(CC)C(=O)Cc1ccc(O)c(C(C)C)c1`, 112 to 113 °C.
With `CC(C#CC1CCC1)N(O)C(N)=O` (configuration not stated), the melting point lay within 144 to 145 °C.
To `CC1CC(=O)N(CCCCN2CCN(c3cncc(Cl)n3)CC2)S(=O)(=O)N1` (configuration not stated) belongs 107 to 109 °C; to `CON(Cc1ccc(C)cc1)C(=O)C1=C(O)C(=O)N(C)C1`, 150 to 152 °C; to `O=C(CC(C(=O)c1ccccc1)C(O)=S)c1ccccc1` (configuration not stated), 142 to 144 °C.
As for `O=c1cc(-c2ccncc2)nc2n1CCCCC2`, the figure is 148 to 150 °C; as for `CCCc1nn(-c2ccc(C(F)(F)F)cn2)cc1CCCOc1c(CC)cnn1CC(=O)O`, 135 to 136 °C; as for `Cc1cccc(C(=O)c2ncccc2C(=O)O)c1`, 184 to 189 °C.
To `CS(=O)(=O)c1ccc(-c2ccccc2Oc2ccccc2)cc1` belongs 130 to 131 °C.
As to `CC1(C)OCC(COc2ccc(Br)cc2C23CC4CC(CC(C4)C2)C3)O1` (configuration not stated), the melting point amounted to 91 °C.
To `O=C(O)c1cccc(-c2ccc3c(n2)C(Oc2ccc(Cl)cc2Cl)CC3)c1` (configuration not stated) belongs 198 to 204 °C; to `CNC(=S)NCCCNc1ccccn1`, 134 to 135 °C.
To `COc1ccccc1NC(=O)C1=C(O)c2ccc3ccccc3c2S(=O)(=O)N1C` belongs 198 to 200 °C.
To `COC(=O)C1CN(C(=O)c2cc(OC)c(OC)c(OC)c2)CCN1` (configuration not stated) belongs 113 to 114 °C; to `CCCOc1ccc(S(C)(=O)=O)cc1-c1nc(OC)c2[nH]nc(CC)c2n1`, 137 to 139 °C.
`CN1CCCC(O)(c2cccc3c2ccn3C)C1` (configuration not stated) gave a melting point of 90 °C.
To `COC(=O)CCC(C)C1CCC2C3=CC=C4C(C)(C)C(O)CCC4(C)C3CCC21C` (configuration not stated) belongs 124 to 128 °C.
To `CC(=O)N1CCC(C)(C)c2c(C)ccc(CCN3CCN(c4nsc5ccccc45)CC3)c21` belongs 132 °C; to `CC1CC=C(Nc2ccccc2)c2ncc(C(=O)O)c(=O)n21` (configuration not stated), 160 to 162 °C; to `O=[N+]([O-])c1ccc2c(c1)C(=NO)CCO2`, 173 to 178 °C.
As for `CC1(C)Oc2cc([N+](=O)[O-])c(N)cc2[C@@H](N2CCCC2=O)[C@@H]1O` (relative stereo), the figure is 244 to 245 °C.
In the case of `Nc1nc(N)c(-c2cccc(Cl)c2Cl)c(CO)n1`, the melting point was in the range of 173 to 176 °C.
To `Cc1cc(O)c2c(C)nn(-c3ccccn3)c2n1` belongs 175 to 176 °C; to `CC1=Cc2cc(-c3nnnn3C)ccc2OC1(C)C`, 127 to 130 °C.
`O=C(NCc1ccccc1)C(Cc1c[nH]c2ccccc12)NC(=O)C(F)(F)F` (configuration not stated) returned a melting point of 186 to 188 °C.
The compound `O=C(NC(CCCN1CCN(c2ncc(F)cn2)CC1)c1ccc(F)cc1)c1ccc(F)cc1` (configuration not stated) showed a melting point of 147 to 148 °C.
To `COc1ccc([C@@H]2CN(C)CC[C@@H]2NC(=O)c2ccccc2)cc1` (relative stereo) belongs 164 to 165 °C; to `COc1cc(-c2ccccc2C(F)(F)F)c(Cl)cc1C(=O)N1Cc2ccc(C(=O)N(C)CC(O)C(O)C(O)C(O)CO)n2Cc2ccccc21` (configuration not stated), 150 to 151 °C.
To `CCNC(=O)Cn1nc(Nc2ccc3c(c2)OC(F)(F)O3)nc1-c1cc(C)nc(C)c1` belongs 242 °C; to `C[C@]1(COc2ccc(N3CCC(Cc4ccc(Cl)cc4)CC3)cc2)Cn2cc([N+](=O)[O-])nc2O1`, 207 to 211 °C.
`COc1ccc2c(c1Br)CCC1CN(C)CC21` (configuration not stated) gave a melting point of 144 to 146 °C.
As for `O=C1CCC(C(=O)O)c2cc(Cl)c(C3CCCCC3)cc21` (configuration not stated), the figure is 204 to 205 °C; as for `O=C(O)CN1C(=O)C(=Cc2ccccc2)SC1=S`, 254 to 256 °C.
As for `Cc1ccc(CC#N)c(OCc2ccc(OCc3nc(-c4ccccc4)oc3C)cc2)n1`, the figure is 122 to 123 °C; as for `Cc1csc(-c2ccc3c(c2)C=C(C(=O)Nc2ccc(CN(C)C4CCOCC4)cc2)CCO3)c1`, 147 to 148 °C.
As for `COC(=O)c1coc2ccc(OCc3ccccc3)cc2c1=O`, the figure is 88 to 89 °C.
For `CC1(Nc2ccccc2)OC(=O)C=C1c1ccccc1` (configuration not stated), the melting point lay in the range of 158 to 160 °C.
To `COc1cc(OC)cc(C(=O)CC(=O)c2ccc(O)cc2O)c1` belongs 267 to 268 °C; to `CCc1c(Cc2ccccc2)oc2c(C(=O)NCCCN3CCN(c4ccccc4OC)CC3)cccc12`, 110 to 112 °C; to `COc1ccc(CCNC(=S)N2CCN(c3ncnc4cc(OC)c(OC)cc34)CC2)cc1OC`, 98 to 100 °C.
On to `CC(Cc1c[nH]c2ccccc12)NC(=O)C=C1CCC(c2ccccc2)(N(C)C)CC1` (configuration not stated), for which the melting point fell in the range of 184 to 187 °C.
As for `CC1(C)[C@H](Cc2noc(C3CCCCC3)n2)CC[C@]1(C)NCC(=O)N1C[C@@H](F)C[C@H]1C#N`, the figure is 152 to 153 °C; as for `CCOC(Cc1ccc(OCCCc2nc(-c3ccc(C(F)(F)F)cc3)oc2C)c2ccsc12)C(=O)O` (configuration not stated), 112 to 114 °C.
On to `O=C1c2cc(OCc3ccc4ccccc4n3)ccc2SCC1Cc1ccccc1` (configuration not stated), for which the melting point lay in the range of 127 to 130 °C.
In the case of `COc1ccc(CCc2ccc(NC(=O)C(=O)C3=C(O)c4ccccc4SC3)cc2)cc1OC`, the melting point was 184 to 185 °C.
As for `C[C@H](CO)Nc1cc(-n2cccn2)nc(-c2cccs2)n1`, the figure is 136 to 137 °C; as for `COc1ccc(NC=O)c(COC=O)c1`, 117 °C; as for `COc1cc2nc(N3CCN(C(=O)C4CC=CC4)CC3)nc(N)c2cc1OC`, 216 to 218 °C.
To `Cc1cc(-c2cc(C(F)(F)F)n3ncc(-c4nc(-c5ccc(S(N)(=O)=O)s5)no4)c3n2)ccc1C(F)(F)F` belongs 324 °C; to `CCCCc1nc(Cl)c(CO)n1Cc1ccc2oc(-c3ccccc3C#N)c(OC)c2c1`, 164 to 168 °C; to `Cc1cccc(-c2cc(Cl)cc3c2OC(CN=[N+]=[N-])C3)c1` (configuration not stated), 48 to 50 °C.
The compound `Cn1cc(O)c(=O)c2ccc(Cl)cc21` showed a melting point of 225 to 228 °C.
As for `CC(Oc1ccc(-c2ccc(F)c(C#N)c2)cc1)C(O)CCc1cccnc1` (configuration not stated), the figure is 108 to 109 °C.
As for `COC(=O)c1ccc(-n2ccc(C)n2)cc1OC`, the figure is 167 to 169 °C; as for `COc1ccc(C(=O)Nc2ccncc2)c2c3ccccc3n(Cc3ccc(F)cc3)c12`, 230 to 232 °C; as for `CCCCCCCCn1c(C2=CC(=O)c3ccccc3C2=O)ccc1C1=CC(=O)c2ccccc2C1=O`, 75 to 76 °C.
Turning to `O=c1ccc2c(-n3cnc(-c4ccccc4)c3)nccc2[nH]1`, the melting point was in the range of 263 to 265 °C.
As for `CON=C(C(=O)O)c1cc2sccc2s1`, the figure is 116 to 117 °C.
With `CNc1nc(Cl)cc(NS(=O)(=O)c2cccc(C(F)(F)F)c2)n1`, the melting point is 190 to 193 °C.
